Common to all, as to test: biochemical
Common to all, as to format: binding

The target in one experiment is T1, SOCS1 (Homo sapiens, UniProt O15524).
T1 construct: made in house; host or cells: HEK293 (transient transfection), unpurified extract
T1 sequence (O15524 1-211): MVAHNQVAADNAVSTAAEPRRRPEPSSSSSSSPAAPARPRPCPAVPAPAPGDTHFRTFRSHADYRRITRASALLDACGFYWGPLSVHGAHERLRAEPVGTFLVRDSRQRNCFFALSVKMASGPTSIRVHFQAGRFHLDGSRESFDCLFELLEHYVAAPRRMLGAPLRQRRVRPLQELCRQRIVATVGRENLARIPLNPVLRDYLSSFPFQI

The target in the next experiment is T2, SHF (Homo sapiens, UniProt Q7M4L6).
T2 construct: made in house; host or cells: HEK293 (transient transfection), unpurified extract
T2 sequence (Q7M4L6 1-423): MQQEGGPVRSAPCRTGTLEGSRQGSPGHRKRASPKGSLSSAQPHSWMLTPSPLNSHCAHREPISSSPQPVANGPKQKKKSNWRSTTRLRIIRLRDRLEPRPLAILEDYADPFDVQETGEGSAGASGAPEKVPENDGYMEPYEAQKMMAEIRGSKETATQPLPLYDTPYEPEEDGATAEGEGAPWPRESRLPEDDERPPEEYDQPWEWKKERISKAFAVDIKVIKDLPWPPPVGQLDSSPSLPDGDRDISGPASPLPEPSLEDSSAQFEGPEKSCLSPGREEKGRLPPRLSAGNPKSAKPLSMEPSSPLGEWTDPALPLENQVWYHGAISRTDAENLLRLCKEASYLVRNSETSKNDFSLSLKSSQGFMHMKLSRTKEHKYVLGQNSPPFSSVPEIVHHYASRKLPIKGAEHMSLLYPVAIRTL

The target of the next experiment is T3, PLCG2(SH2dom.C-term.) (Homo sapiens, UniProt P16885).
T3 construct: SH2dom.C-term. denotes SH2 domain closest to C-terminus of protein; made in house; host or cells: HEK293 (transient transfection, unpurified extract)
T3 sequence (P16885 646-735 limits assumed): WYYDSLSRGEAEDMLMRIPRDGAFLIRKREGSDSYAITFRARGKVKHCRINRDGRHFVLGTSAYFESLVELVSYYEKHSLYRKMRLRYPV

The target of the next experiment is T4, PLCG1(SH2dom.C-term.) (Homo sapiens, UniProt P19174).
T4 construct: SH2dom.C-term. denotes SH2 domain closest to C-terminus of protein; made in house; host or cells: HEK293 (transient transfection, unpurified extract)
T4 sequence (P19174 668-756 limits assumed): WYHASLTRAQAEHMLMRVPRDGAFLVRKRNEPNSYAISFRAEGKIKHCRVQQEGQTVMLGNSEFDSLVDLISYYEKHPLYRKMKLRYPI

A further experiment deals with T5, VAV2 (Homo sapiens, UniProt P52735).
T5 construct: made in house; host or cells: HEK293 (transient transfection), unpurified extract
T5 sequence (P52735 1-878): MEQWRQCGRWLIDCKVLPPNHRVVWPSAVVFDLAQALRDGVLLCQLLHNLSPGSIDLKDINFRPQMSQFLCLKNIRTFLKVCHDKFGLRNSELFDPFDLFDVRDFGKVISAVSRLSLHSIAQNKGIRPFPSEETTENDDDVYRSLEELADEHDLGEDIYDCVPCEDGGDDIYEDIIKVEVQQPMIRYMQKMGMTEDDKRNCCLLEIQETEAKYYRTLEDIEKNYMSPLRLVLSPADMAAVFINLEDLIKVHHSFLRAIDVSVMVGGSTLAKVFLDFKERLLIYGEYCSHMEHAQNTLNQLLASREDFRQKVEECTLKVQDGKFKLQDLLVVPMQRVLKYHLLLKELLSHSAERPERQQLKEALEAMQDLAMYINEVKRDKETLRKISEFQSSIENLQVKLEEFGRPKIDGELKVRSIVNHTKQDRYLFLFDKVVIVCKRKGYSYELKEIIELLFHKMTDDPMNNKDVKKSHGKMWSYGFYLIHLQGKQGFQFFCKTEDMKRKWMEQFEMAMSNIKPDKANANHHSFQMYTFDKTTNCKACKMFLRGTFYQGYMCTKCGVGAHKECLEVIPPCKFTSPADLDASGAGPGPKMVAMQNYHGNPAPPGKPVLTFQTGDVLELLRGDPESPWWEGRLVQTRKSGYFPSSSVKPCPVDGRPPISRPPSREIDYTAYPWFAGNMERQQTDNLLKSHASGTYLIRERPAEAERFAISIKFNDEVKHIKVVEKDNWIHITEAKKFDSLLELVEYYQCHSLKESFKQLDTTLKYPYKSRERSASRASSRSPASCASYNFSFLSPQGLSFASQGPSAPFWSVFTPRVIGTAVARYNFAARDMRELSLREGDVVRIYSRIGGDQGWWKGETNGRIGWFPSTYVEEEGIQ

For another experiment, the target named is T6, VAV1 (Homo sapiens, UniProt P15498).
T6 construct: made in house; host or cells: HEK293 (transient transfection), unpurified extract
T6 sequence (P15498 1-845): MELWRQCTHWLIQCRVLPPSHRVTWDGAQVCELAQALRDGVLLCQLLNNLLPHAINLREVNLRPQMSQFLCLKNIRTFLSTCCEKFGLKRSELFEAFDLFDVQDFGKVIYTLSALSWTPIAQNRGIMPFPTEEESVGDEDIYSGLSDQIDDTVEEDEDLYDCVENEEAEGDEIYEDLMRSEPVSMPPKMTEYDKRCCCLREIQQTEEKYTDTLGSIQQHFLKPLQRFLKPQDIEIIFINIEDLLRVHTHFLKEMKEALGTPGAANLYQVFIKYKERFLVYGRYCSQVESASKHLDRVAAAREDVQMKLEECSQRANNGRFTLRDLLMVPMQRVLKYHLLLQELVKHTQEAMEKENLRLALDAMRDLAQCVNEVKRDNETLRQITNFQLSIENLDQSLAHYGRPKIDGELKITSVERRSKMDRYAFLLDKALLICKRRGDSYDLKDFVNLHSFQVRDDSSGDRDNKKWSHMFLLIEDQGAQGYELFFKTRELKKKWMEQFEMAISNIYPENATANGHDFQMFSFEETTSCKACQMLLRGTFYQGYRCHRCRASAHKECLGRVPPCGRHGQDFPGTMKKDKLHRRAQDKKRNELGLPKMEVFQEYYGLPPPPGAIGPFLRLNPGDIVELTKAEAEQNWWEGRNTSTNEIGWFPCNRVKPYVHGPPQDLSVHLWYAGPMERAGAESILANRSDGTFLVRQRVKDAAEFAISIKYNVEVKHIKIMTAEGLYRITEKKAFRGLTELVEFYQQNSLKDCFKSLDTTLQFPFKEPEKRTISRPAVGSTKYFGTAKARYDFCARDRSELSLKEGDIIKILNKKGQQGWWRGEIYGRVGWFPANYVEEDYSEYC

A further experiment addresses T7, TXK (Homo sapiens, UniProt P42681).
T7 construct: made in house; host or cells: HEK293 (transient transfection), unpurified extract
T7 sequence (P42681 1-527): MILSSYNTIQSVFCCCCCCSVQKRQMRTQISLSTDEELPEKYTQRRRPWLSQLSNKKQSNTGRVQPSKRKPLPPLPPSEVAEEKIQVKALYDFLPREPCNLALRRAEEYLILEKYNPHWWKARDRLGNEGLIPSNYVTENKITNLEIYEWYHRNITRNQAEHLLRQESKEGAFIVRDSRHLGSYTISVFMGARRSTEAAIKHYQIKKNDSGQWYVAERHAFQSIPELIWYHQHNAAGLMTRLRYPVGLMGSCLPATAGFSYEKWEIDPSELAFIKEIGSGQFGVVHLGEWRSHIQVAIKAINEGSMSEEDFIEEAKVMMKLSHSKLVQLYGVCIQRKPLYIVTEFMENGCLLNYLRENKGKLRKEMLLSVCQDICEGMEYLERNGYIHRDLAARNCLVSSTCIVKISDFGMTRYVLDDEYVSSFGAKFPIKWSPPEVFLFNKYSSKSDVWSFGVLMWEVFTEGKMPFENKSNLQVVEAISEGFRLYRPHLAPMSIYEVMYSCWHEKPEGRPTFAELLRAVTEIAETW

For the next experiment, the target named is T8, VAV3 (Homo sapiens, UniProt Q9UKW4).
T8 construct: made in house; host or cells: HEK293 (transient transfection), unpurified extract
T8 sequence (Q9UKW4 1-847): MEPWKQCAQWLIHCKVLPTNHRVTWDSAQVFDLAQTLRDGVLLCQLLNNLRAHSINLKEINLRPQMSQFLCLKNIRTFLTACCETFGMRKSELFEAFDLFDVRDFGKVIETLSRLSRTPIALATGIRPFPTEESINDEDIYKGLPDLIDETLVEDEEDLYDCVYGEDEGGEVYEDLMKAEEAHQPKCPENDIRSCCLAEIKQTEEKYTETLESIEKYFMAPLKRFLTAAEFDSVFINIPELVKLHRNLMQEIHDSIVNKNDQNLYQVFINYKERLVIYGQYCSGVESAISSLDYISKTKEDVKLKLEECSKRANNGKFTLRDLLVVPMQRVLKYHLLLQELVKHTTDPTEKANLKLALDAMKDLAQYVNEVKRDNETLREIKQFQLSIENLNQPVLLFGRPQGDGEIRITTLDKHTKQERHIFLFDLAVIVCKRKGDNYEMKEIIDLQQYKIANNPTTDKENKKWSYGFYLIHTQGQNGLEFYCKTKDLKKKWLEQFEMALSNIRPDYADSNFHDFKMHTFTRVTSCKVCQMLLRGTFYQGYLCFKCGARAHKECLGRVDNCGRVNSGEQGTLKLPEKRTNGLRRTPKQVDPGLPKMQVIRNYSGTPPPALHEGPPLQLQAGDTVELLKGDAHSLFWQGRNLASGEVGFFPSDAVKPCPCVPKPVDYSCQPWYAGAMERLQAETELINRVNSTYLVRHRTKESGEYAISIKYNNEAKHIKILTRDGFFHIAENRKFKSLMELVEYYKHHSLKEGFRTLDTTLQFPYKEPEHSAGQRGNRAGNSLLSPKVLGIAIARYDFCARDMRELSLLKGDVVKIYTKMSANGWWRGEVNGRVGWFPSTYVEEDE

In another experiment the target is T9, NCK1 (Homo sapiens, UniProt P16333).
T9 construct: the DNA-tagged SH2 domain concentrations used in this study were <0.1 nM; made in house; host or cells: HEK293 (transient transfection, unpurified extract)

The target of the next experiment is T10, TEC (Homo sapiens, UniProt P42680).
T10 construct: made in house; host or cells: HEK293 (transient transfection), unpurified extract
T10 sequence (P42680 1-631): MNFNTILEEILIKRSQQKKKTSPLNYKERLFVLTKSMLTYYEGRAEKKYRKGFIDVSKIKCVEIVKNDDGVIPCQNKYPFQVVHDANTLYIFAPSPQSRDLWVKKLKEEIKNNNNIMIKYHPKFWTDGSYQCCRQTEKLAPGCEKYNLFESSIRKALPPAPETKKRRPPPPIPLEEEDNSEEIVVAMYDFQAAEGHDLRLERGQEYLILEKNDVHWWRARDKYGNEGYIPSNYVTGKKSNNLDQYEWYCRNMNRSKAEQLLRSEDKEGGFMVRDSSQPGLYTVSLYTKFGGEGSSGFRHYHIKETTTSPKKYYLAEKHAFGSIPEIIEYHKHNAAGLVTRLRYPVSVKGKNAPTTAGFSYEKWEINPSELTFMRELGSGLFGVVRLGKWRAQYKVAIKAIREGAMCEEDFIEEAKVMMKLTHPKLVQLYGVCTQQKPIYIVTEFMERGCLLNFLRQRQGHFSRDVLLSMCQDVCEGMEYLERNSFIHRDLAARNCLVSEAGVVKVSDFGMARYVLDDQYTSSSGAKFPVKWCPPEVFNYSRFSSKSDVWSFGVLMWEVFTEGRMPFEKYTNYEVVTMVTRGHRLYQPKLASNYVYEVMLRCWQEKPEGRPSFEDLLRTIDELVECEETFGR

Non-standard residues stand in square brackets, D forms with d. Residues, ends and D or L forms follow the SMILES beside them. pY = N[C@@H](Cc1ccc(OP(=O)(O)O)cc1)C(=O)O

Usually Kd stands for the constant that tells how readily two partners part at equilibrium. Regarding `CC(=O)N[C@@H](CS)C(=O)N[C@@H](CCC(N)=O)C(=O)N[C@H](C(=O)N[C@@H](Cc1ccc(OP(=O)(O)O)cc1)C(=O)N[C@@H](Cc1ccccc1)C(=O)N[C@H](C(=O)N[C@@H](Cc1ccc(O)cc1)C(=O)N[C@@H](CC(=O)O)C(=O)N1CCC[C@H]1C(=O)N[C@@H](Cc1ccc(O)cc1)C(=O)N[C@@H](CO)C(=O)N[C@@H](CCC(=O)O)C(N)=O)[C@@H](C)O)C(C)C` (Ac-CQV[pY]FTYDPYSE-NH2), on SOCS1, the Kd stood at 1430 ± 426 nM.
Regarding `CC[C@H](C)[C@H](NC(=O)[C@@H](NC(=O)[C@H](Cc1ccc(OP(=O)(O)O)cc1)NC(=O)[C@H](CO)NC(=O)[C@H](CCCNC(=N)N)NC(=O)[C@@H](NC(=O)[C@H](CO)NC(=O)[C@H](CCC(=O)O)NC(=O)[C@H](CCCCN)NC(=O)[C@H](CCCCN)NC(=O)[C@H](CCCCN)NC(=O)[C@H](CCCCN)NC(C)=O)[C@@H](C)O)C(C)C)C(=O)N[C@@H](CC(C)C)C(=O)N[C@@H](CO)C(=O)N[C@@H](Cc1ccccc1)C(=O)N[C@@H](CCC(=O)O)C(=O)N[C@@H](CC(N)=O)C(=O)N[C@@H](CC(N)=O)C(=O)NCC(N)=O` (Ac-KKKKESTRS[pY]VILSFENNG-NH2), the figures for the dissociation constant Kd at SHF and at PLCG2(SH2dom.C-term.) were 1470 ± 880 nM and 10.9 ± 7.09 nM, respectively.
`CC(=O)N[C@@H](CC(=O)O)C(=O)N[C@H](C(=O)N[C@@H](CCC(=O)O)C(=O)N[C@H](C(=O)N[C@@H](Cc1ccc(OP(=O)(O)O)cc1)C(=O)N[C@@H](CCC(=O)O)C(=O)N[C@@H](CO)C(=O)N1CCC[C@H]1C(=O)N[C@@H](Cc1ccc(OP(=O)(O)O)cc1)C(=O)N[C@@H](C)C(=O)N[C@@H](CC(=O)O)C(=O)N1CCC[C@H]1C(=O)N[C@@H](CCC(=O)O)C(N)=O)C(C)C)[C@@H](C)O` [Ac-DTEVpYESPpYADPE-NH2] (Ac-DTEV[pY]ESP[pY]ADPE-NH2): the Kd on PLCG1(SH2dom.C-term.) was determined as 2910 ± 2740 nM; at VAV2, 95.1 ± 19.9 nM; on VAV1, 1400 ± 193 nM; on TXK, 4.12 ± 0.637 µM; at VAV3, 163 ± 48.2 nM.
In the case of `CC[C@H](C)[C@H](NC(=O)[C@H](Cc1c[nH]cn1)NC(=O)[C@H](CCC(=O)O)NC(C)=O)C(=O)N[C@@H](Cc1ccc(OP(=O)(O)O)cc1)C(=O)N[C@@H](CC(=O)O)C(=O)N[C@@H](CCC(=O)O)C(=O)N[C@H](C(=O)N[C@@H](C)C(=O)N[C@@H](C)C(=O)N[C@@H](CC(=O)O)C(N)=O)C(C)C` [Ac-EHIpYDEVAAD-NH2], the Kd amounted to 15.3 ± 5.07 nM on NCK1 and 267 ± 66.3 nM on TEC.

These data come from PMC12951562, “SH2scan: Mapping SH2 Domain-Ligand Binding Selectivity for Inhibitors and Degraders” (Journal of Medicinal Chemistry, 2026).
